Measurements: PubChem BioAssay (NCI)
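96-well plates; 48 h exposure; 5 concentrations. Endpoints by linear interpolation between flanking doses. Not reached: highest tested concentration assigned. GI50: concentration for 50% inhibition of growth. TGI marks complete inhibition of growth.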

Experiments:
Assay in all cases: growth of human tumour cells (NCI), 48 h
HOP-92 NSCLC = test system: HOP-92 NSCLC
EKVX NSCLC = test system: EKVX NSCLC
CCRF-CEM leukemia = test system: CCRF-CEM leukemia
ACHN renal = test system: ACHN renal
HCC-2998 colon = test system: HCC-2998 colon
SK-OV-3 ovarian = test system: SK-OV-3 ovarian
UO-31 renal = test system: UO-31 renal
LOX IMVI melanoma = test system: LOX IMVI melanoma
U251 CNS = test system: U251 CNS
TK-10 renal = test system: TK-10 renal

| SMILES | GI50 (HOP-92 NSCLC) [µM] | TGI (HOP-92 NSCLC) [µM] | GI50 (EKVX NSCLC) [µM] | TGI (EKVX NSCLC) [µM] | GI50 (CCRF-CEM leukemia) [µM] | TGI (CCRF-CEM leukemia) [µM] | GI50 (ACHN renal) [µM] | TGI (ACHN renal) [µM] | GI50 (HCC-2998 colon) [µM] | TGI (HCC-2998 colon) [µM] | GI50 (SK-OV-3 ovarian) [µM] | TGI (SK-OV-3 ovarian) [µM] | GI50 (UO-31 renal) [µM] | TGI (UO-31 renal) [µM] | GI50 (LOX IMVI melanoma) [µM] | TGI (LOX IMVI melanoma) [µM] | GI50 (U251 CNS) [µM] | TGI (U251 CNS) [µM] | GI50 (TK-10 renal) [µM] | TGI (TK-10 renal) [µM] |
| --- | --- | --- | --- | --- | --- | --- | --- | --- | --- | --- | --- | --- | --- | --- | --- | --- | --- | --- | --- | --- |
| c1cc[c]([Sn]([S]c2cccc3cccnc23)([S]c2cccc3cccnc23)[c]2ccccc2)cc1 | 0.158 | 0.493 | 0.22 | 0.881 | 0.0948 | 0.429 | 0.209 | 0.496 | 0.17 | 0.352 | 0.588 | 2.07 | 0.182 | 0.514 | 0.186 | 0.402 | 0.482 | 1.92 | 0.206 | 0.417 |
| CC(C)(C)OC(=O)CN1CCc2c(sc3ncnc(N/N=C/c4cccc5ccccc45)c23)C1 | 1.74 | 16.7 | 2.22 | > 33.3 | 1.56 | > 33.3 | 1.59 | 7.5 | 3.6 | 11.7 | 4.48 | 26.1 | 1.19 | 5.87 | 1.72 | 5.93 | 3.18 | 14.6 | 5.34 | > 33.3 |
| CN1CCN(CCNc2ccc(CO)c3sc4ccccc4c(=O)c23)CC1 |  | 13.2 | 7.48 | 20.7 |  | > 48 |  | 26.7 |  | 18.6 | 3.17 | 14 |  | 19.6 | 2.59 | 8.27 |  | 14.6 |  | 20.1 |
| C[C@]12C3CC[C@@]4(CO)C[C@]3(CCC1[C@](C)(C(=O)O)CC[C@@H]2O)CC4=O (some centres not stated) | > 100 | > 100 | > 100 | > 100 | > 100 | > 100 | > 100 | > 100 | > 100 | > 100 | > 100 | > 100 | > 100 | > 100 | > 100 | > 100 | > 100 | > 100 | > 100 | > 100 |
| CCCCCCC#CC#Cc1cccc(=O)o1 | 3.24 | 8.92 | 13.8 | 31.7 | 0.265 | > 19.8 | 1.84 | 3.96 | 2.52 | 6.12 | 23.8 | > 70 | 3.26 | > 27.4 | 0.122 | 0.43 | 2.07 | 4.92 | 2.67 | 8.23 |
| C=CCC(N[C@H](CO)c1ccccc1)c1cn(S(=O)(=O)c2ccc(C)cc2)c2ccccc12 (some centres not stated) | 24.9 | > 100 | 25.2 | 74.8 | 22.6 | 76.7 | 18 | 45.2 | 15.8 | 33.4 | 59.7 | > 100 | 94.8 | > 100 | 13.7 | 27 | 17.6 | 36 | 3.62 | 18 |
| BrC1=CC=C2NCCCCCCN=C3C=CC(Br)=CC=C3NCCCCCCN=C2C=C1 |  | > 25.5 |  | > 25.5 |  | > 25.5 |  | > 25.5 |  | > 25.5 |  | > 25.5 |  | > 25.5 |  | > 25.5 |  | > 25.5 |  | > 25.5 |
| COc1ccc2c(c1)cn1c3ccc(O)cc3[nH]c(=O)c21 | 2.53 | 18.2 | 0.797 | 19.2 | 0.149 | 4.66 | 0.112 | 1.99 | 0.667 | 4.42 | 0.202 | 12.8 | 0.264 | 13.1 | 0.072 | 1.96 | 0.143 | 1.9 | 0.881 | 2.49 |
| O=C(Nc1ccc(Cl)cc1)c1cc(S(=O)(=O)Nc2nnc(-c3ccccc3)c(-c3ccccc3)n2)c(SCc2ccccc2)cc1Cl | 25.3 | 66.8 | 32.1 | > 63.8 | 29.7 | 76.8 | 27.7 | > 61.5 | 17.6 | 33.7 | > 44.2 | > 60.7 | 35.9 | > 100 | 17.3 | 35.1 | 20.7 | 51.3 | 29.8 | > 64.4 |
| Oc1c(I)cc(-c2nc3ccccc3s2)cc1CN(Cc1ccccn1)Cc1ccccn1 | 0.273 | 5.45 | 0.321 | > 100 | 0.35 | > 100 | 0.286 | 3.37 | 0.43 | 43.9 | 0.437 | > 100 | 0.272 | 2.35 | 0.305 | 1.38 | 0.267 | 12.9 | 0.46 | > 100 |
| COC(=O)OCc1ccc2c(c1)C(=O)c1c-2n(CCCBr)c(=O)c2cc([N+](=O)[O-])ccc12 | 28.9 | 77.1 | 74.3 | > 100 | 45.9 | > 100 | 24.2 | 93.8 | 61.3 | > 100 | 31.1 | > 100 | > 100 | > 100 | 74.3 | > 100 | 35.3 | > 100 | 19.1 | 61.3 |
| COC(=O)C1(C2CC/C(C)=C/CC/C(C)=C/CC[C@@]3(C)O[C@@H]3C2)CC1 (some centres not stated) | 27.3 | > 100 | > 100 | > 100 | 25.7 | 65.3 | > 41.3 | > 62.2 |  | > 20.8 | > 100 | > 100 | 26.6 | > 56.3 | 23.6 | > 60.5 | 39.1 | > 100 | > 59.6 | > 100 |
| CCOc1ccc2ccc3cccnc3c2n1 |  | > 100 |  | > 100 |  | > 100 |  | > 100 |  | > 100 |  | 95.2 |  | > 100 |  | > 100 |  | > 100 |  | > 100 |
